According to patent publication US12252524B2, “GIP/GLP1 co-agonist compounds” (Eli Lilly and Company, priority 2018, dated 2025):
Numbered stars: 1 amine (or outer) side, 2 acyl side, 3 side chain; on linkers, the order of the positions; unused ones are H or OH. Square brackets hold non-standard residues; d marks the D form. Side chains are listed from the residue outwards. Peptide text beside a SMILES is read from it. * marks the point of attachment. C20 diacid = O=C(O)CCCCCCCCCCCCCCCCCCC(=O)*; C18 diacid = O=C(O)CCCCCCCCCCCCCCCCC(=O)*; αMePhe(2-F) = C[C@](N)(Cc1ccccc1F)C(=O)O; γGlu = O=C(O)[C@H](CCC(=O)[*:2])N[*:1]; Desaminotyrosyl = O=C(CCc1ccc(O)cc1)*; αMeY = C[C@](N)(Cc1ccc(O)cc1)C(=O)O; αMeF = C[C@](N)(Cc1ccccc1)C(=O)O; αMeL = CC(C)C[C@](C)(N)C(=O)O; Orn = NCCC[C@H](N)C(=O)O; Dab = NCC[C@H](N)C(=O)O; AEEA = NCCOCCOCC(=O)O; Aib = CC(C)(N)C(=O)O

Experiments:
human GIP receptor = biological target: T1, human GIP receptor (Homo sapiens, UniProt P48546); assay: [125I]-GIP binding (SPA), human GIP receptor; details: read-out: hGIPR Ki, nM (SEM, n)
T1 construct: expressed in transfected cells; crude membranes
T1 sequence (P48546 22-466): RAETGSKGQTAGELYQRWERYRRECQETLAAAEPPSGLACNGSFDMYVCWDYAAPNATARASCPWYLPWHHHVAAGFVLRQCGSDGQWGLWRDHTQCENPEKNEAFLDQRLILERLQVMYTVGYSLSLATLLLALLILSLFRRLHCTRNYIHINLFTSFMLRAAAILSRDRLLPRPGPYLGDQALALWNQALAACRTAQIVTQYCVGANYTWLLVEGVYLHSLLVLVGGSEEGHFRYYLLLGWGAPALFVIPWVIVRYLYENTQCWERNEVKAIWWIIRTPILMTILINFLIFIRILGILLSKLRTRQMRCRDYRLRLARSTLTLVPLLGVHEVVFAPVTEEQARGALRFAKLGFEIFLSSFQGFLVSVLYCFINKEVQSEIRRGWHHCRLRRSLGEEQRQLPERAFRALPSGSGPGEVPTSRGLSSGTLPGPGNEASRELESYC

human Gcg receptor = biological target: T2, human Gcg receptor (Homo sapiens, UniProt P47871); assay: [125I]-Glucagon binding (SPA), human Gcg receptor; details: read-out: hGLcgR Ki, nM (SEM, n)
T2 construct: expressed in transfected cells; crude membranes
How it was run: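 Scintillation counts are taken after membranes and WGA beads incubate and settle for 12 hours at room temperature. Buffer is 25 mM HEPES, pH 7.4, with CaCl2, MgCl2, bacitracin and Tween-20. Ki values, from four-parameter IC50 fits, are geometric means over independent days.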

[1] = biological target: T3, gastric inhibitory peptide receptor (GIPR) (Homo sapiens, UniProt P48546); assay: cAMP pharmacological functional assay in presence of casein, hGIPR; format: cell-based; details: HEK293 cells expressing hGIPR, 0.1% Casein, geometric mean; read-out: hGIPR cAMP Rel EC50 nM (SEM, n)
T3 sequence (P48546 22-466): T1 sequence (P48546 22-466)

[2] = biological target: human GLP-1 receptor (GLP-1R) (Homo sapiens, UniProt P43220); assay: cAMP pharmacological functional assay in presence of casein, hGLP-1R; format: cell-based; details: HEK293 cells expressing hGLP-1R, 0.1% Casein, geometric mean; read-out: hGLP1R cAMP Rel EC50 nM (SEM, n)
human GLP-1R = human GLP-1R (Homo sapiens, UniProt P43220); assay: [125I]-GLP-1 binding (SPA), human GLP-1 receptor; design: expressed in transfected cells; crude membranes; details: read-out: hGLP1R Ki, (nM) (SEM, n)
How it was run: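 Assay buffer: HEPES 25 mM, pH 7.4, CaCl2 2.5 mM, MgCl2 1 mM, with EDTA-free protease inhibitors. Receptor came from crude cell membranes prepared by homogenization and centrifugation at 4° C. IC50s came from four-parameter fits (maximum, minimum, IC50, Hill slope) and were expressed as Ki geometric means with SEM.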

T2 sequence (P47871 26-477): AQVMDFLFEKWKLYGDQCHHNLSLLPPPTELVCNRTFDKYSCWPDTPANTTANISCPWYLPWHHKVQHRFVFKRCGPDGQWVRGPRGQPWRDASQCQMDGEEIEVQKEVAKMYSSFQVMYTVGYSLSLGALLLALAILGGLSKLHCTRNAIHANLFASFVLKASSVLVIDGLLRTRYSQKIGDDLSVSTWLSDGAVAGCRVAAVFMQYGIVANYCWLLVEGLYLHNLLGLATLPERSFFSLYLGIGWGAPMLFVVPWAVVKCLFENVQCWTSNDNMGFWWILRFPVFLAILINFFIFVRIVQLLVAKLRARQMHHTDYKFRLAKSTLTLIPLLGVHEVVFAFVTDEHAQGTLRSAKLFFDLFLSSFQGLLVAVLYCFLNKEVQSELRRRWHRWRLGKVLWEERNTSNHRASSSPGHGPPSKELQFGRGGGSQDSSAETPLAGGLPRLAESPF
Sequence of human GLP-1R (P43220 24-463): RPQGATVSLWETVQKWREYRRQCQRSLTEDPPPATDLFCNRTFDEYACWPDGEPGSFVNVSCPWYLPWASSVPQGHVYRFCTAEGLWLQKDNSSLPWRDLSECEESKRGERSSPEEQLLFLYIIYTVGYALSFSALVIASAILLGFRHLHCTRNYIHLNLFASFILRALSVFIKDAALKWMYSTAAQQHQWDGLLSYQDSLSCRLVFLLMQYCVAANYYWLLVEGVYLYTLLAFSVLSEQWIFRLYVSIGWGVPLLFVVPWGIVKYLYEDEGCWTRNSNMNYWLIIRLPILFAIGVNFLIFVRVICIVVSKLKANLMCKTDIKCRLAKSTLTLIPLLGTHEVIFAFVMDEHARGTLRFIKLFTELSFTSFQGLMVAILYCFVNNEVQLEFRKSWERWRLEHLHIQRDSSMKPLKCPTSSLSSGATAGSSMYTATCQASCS
Sequence of human GLP-1 receptor (GLP-1R) (P43220 24-463): as above

SMILES	Ki (human GIP receptor)	Ki (human Gcg receptor)	EC50 [1]	EC50 [2]	Ki (human GLP-1R)
CC[C@H](C)[C@H](NC(=O)[C@H](CC(C)C)NC(=O)[C@H](Cc1ccc(O)cc1)NC(=O)[C@H](CCC(=O)O)NC(=O)[C@@H](NC(=O)[C@H](Cc1ccccc1)NC(=O)[C@H](C)NC(=O)C(C)(C)NC(=O)[C@H](CCC(N)=O)NC(=O)[C@H](C)NC(=O)[C@H](CCCCNC(=O)COCCOCCNC(=O)COCCOCCNC(=O)CC[C@H](NC(=O)CCCCCCCCCCCCCCCCCCC(=O)O)C(=O)O)NC(=O)[C@H](CCCCN)NC(=O)[C@H](CC(=O)O)NC(=O)[C@H](CC(C)C)NC(=O)[C@H](CC(C)C)NC(=O)[C@@H](NC(=O)[C@H](CO)NC(=O)[C@H](Cc1ccc(O)cc1)NC(=O)[C@H](CC(=O)O)NC(=O)[C@H](CO)NC(=O)[C@@H](NC(=O)[C@H](Cc1ccccc1)NC(=O)[C@@H](NC(=O)CNC(=O)[C@H](CCC(=O)O)NC(=O)[C@@H]1CCCN1C(=O)[C@@H](N)Cc1ccc(O)cc1)[C@@H](C)O)[C@@H](C)O)[C@@H](C)CC)[C@@H](C)CC)C(=O)N[C@@H](CCC(=O)O)C(=O)NCC(=O)NCC(=O)N1CCC[C@H]1C(=O)N[C@@H](CO)C(=O)N[C@@H](CO)C(=O)NCC(=O)N[C@@H](C)C(=O)N1CCC[C@H]1C(=O)N1CCC[C@H]1C(=O)N1CCC[C@H]1C(=O)N[C@@H](CO)C(N)=O [Example 88] (H-YPEGTFTSDYSILLDKK([AEEA-AEEA-γGlu-C20 diacid])AQ[Aib]AFIEYLIEGGPSSGAPPPS-NH2)	0.0717 nM	545 nM	0.475 nM	0.64 nM	4.24 nM
CC[C@H](C)[C@H](NC(=O)[C@H](Cc1ccccc1)NC(=O)[C@H](C)NC(=O)[C@H](CCC(N)=O)NC(=O)[C@H](CCC(N)=O)NC(=O)[C@H](C)NC(=O)[C@H](CCCCNC(=O)COCCOCCNC(=O)COCCOCCNC(=O)CC[C@H](NC(=O)CCCCCCCCCCCCCCCCCCC(=O)O)C(=O)O)NC(=O)[C@H](CCC(=O)O)NC(=O)[C@H](CC(=O)O)NC(=O)[C@H](CC(C)C)NC(=O)[C@](C)(CC(C)C)NC(=O)[C@@H](NC(=O)[C@H](CO)NC(=O)[C@H](Cc1ccc(O)cc1)NC(=O)[C@H](CC(=O)O)NC(=O)[C@H](CO)NC(=O)[C@@H](NC(=O)[C@](C)(Cc1ccccc1)NC(=O)[C@@H](NC(=O)CNC(=O)[C@H](CCC(=O)O)NC(=O)C(C)(C)NC(=O)[C@@H](N)Cc1ccc(O)cc1)[C@@H](C)O)[C@@H](C)O)[C@@H](C)CC)C(=O)N[C@@H](CCC(=O)O)C(=O)N[C@@H](Cc1ccc(O)cc1)C(=O)N[C@@H](CC(C)C)C(=O)N[C@H](C(=O)N[C@@H](CCC(=O)O)C(=O)NC(C)(C)C(=O)NCC(=O)N1CCC[C@H]1C(=O)N[C@@H](CO)C(=O)N[C@@H](CO)C(=O)NCC(=O)N[C@@H](C)C(=O)N1CCC[C@H]1C(=O)N1CCC[C@H]1C(=O)N1CCC[C@H]1C(=O)N[C@@H](CO)C(N)=O)[C@@H](C)CC [Example 122] (H-Y[Aib]EGT[αMeF]TSDYSI[αMeL]LDEK([AEEA-AEEA-γGlu-C20 diacid])AQQAFIEYLIE[Aib]GPSSGAPPPS-NH2)	0.19 nM	43.3 nM	0.0923 nM	0.076 nM	3.36 nM
CC[C@H](C)[C@H](NC(=O)[C@H](CC(C)C)NC(=O)[C@](C)(Cc1ccc(O)cc1)NC(=O)[C@@H](CCC(=O)O)NC(=O)[C@@H](NC(=O)[C@H](Cc1ccccc1)NC(=O)[C@H](C)NC(=O)C(C)(C)NC(=O)[C@H](CCC(N)=O)NC(=O)[C@H](C)NC(=O)[C@H](CCCCNC(=O)COCCOCCNC(=O)COCCOCCNC(=O)CC[C@H](NC(=O)CCCCCCCCCCCCCCCCC(=O)O)C(=O)O)NC(=O)[C@H](CCCN)NC(=O)[C@H](CC(=O)O)NC(=O)[C@H](CC(C)C)NC(=O)[C@](C)(CC(C)C)NC(=O)[C@@H](NC(=O)[C@H](CO)NC(=O)[C@H](C)NC(=O)[C@H](CC(=O)O)NC(=O)[C@H](CO)NC(=O)[C@@H](NC(=O)[C@](C)(Cc1ccccc1F)NC(=O)[C@@H](NC(=O)CNC(=O)[C@H](CCC(=O)O)NC(=O)C(C)(C)NC(=O)[C@@H](N)Cc1ccc(O)cc1)[C@@H](C)O)[C@@H](C)O)[C@@H](C)CC)[C@@H](C)CC)C(=O)N[C@@H](CCC(=O)O)C(=O)NCC(=O)NCC(=O)N1CCC[C@H]1C(=O)N[C@@H](CO)C(=O)N[C@@H](CO)C(=O)NCC(=O)N[C@@H](C)C(=O)N1CCC[C@H]1C(=O)N1CCC[C@H]1C(=O)N1CCC[C@H]1C(=O)N[C@@H](CO)C(N)=O [Example 246] (H-Y[Aib]EGT[αMePhe(2-F)]TSDASI[αMeL]LD[Orn]K([AEEA-AEEA-γGlu-C18 diacid])AQ[Aib]AFI[dE][αMeY]LIEGGPSSGAPPPS-NH2)	0.0509 nM	> 1010 nM	0.0258 nM	0.0144 nM	0.812 nM
CC[C@H](C)[C@H](NC(=O)[C@H](CC(C)C)NC(=O)[C@H](Cc1ccc(O)cc1)NC(=O)[C@H](CCC(=O)O)NC(=O)[C@@H](NC(=O)[C@H](Cc1ccccc1)NC(=O)[C@H](C)NC(=O)C(C)(C)NC(=O)[C@H](CCC(N)=O)NC(=O)[C@H](C)NC(=O)[C@H](CCCCNC(=O)COCCOCCNC(=O)COCCOCCNC(=O)CC[C@H](NC(=O)CCCCCCCCCCCCCCCCCCC(=O)O)C(=O)O)NC(=O)[C@H](CCCCN)NC(=O)[C@H](CC(=O)O)NC(=O)[C@H](CC(C)C)NC(=O)[C@H](CC(C)C)NC(=O)[C@@H](NC(=O)[C@H](CO)NC(=O)[C@H](Cc1ccc(O)cc1)NC(=O)[C@H](CC(=O)O)NC(=O)[C@H](CO)NC(=O)[C@@H](NC(=O)[C@H](Cc1ccccc1)NC(=O)[C@@H](NC(=O)CNC(=O)[C@H](CCC(=O)O)NC(=O)C(C)(C)NC(=O)CCc1ccc(O)cc1)[C@@H](C)O)[C@@H](C)O)[C@@H](C)CC)[C@@H](C)CC)C(=O)N[C@@H](CCC(=O)O)C(=O)NCC(=O)NCC(=O)N1CCC[C@H]1C(=O)N[C@@H](CO)C(=O)N[C@@H](CO)C(=O)NCC(=O)N[C@@H](C)C(=O)N1CCC[C@H]1C(=O)N1CCC[C@H]1C(=O)N1CCC[C@H]1C(=O)N[C@@H](CO)C(N)=O [Example 107] (Desaminotyrosyl-[Aib]EGTFTSDYSILLDKK([AEEA-AEEA-γGlu-C20 diacid])AQ[Aib]AFIEYLIEGGPSSGAPPPS-NH2)	0.0425 nM	303 nM	0.241 nM	0.0539 nM	0.867 nM
CC[C@H](C)[C@H](NC(=O)[C@H](CC(C)C)NC(=O)[C@H](Cc1ccc(O)cc1)NC(=O)[C@@H](CCC(=O)O)NC(=O)[C@@H](NC(=O)[C@H](Cc1ccccc1)NC(=O)[C@H](CCC(=O)O)NC(=O)C(C)(C)NC(=O)[C@H](CCC(N)=O)NC(=O)[C@H](C)NC(=O)[C@H](CCCCNC(=O)COCCOCCNC(=O)COCCOCCNC(=O)CC[C@H](NC(=O)CCCCCCCCCCCCCCCCC(=O)O)C(=O)O)NC(=O)[C@H](CCN)NC(=O)[C@H](CC(=O)O)NC(=O)[C@H](CC(C)C)NC(=O)[C@](C)(CC(C)C)NC(=O)[C@@H](NC(=O)[C@H](CO)NC(=O)[C@H](Cc1ccc(O)cc1)NC(=O)[C@H](CC(=O)O)NC(=O)[C@H](CO)NC(=O)[C@@H](NC(=O)[C@](C)(Cc1ccccc1F)NC(=O)[C@@H](NC(=O)CNC(=O)[C@H](CCC(=O)O)NC(=O)C(C)(C)NC(=O)[C@@H](N)Cc1ccc(O)cc1)[C@@H](C)O)[C@@H](C)O)[C@@H](C)CC)[C@@H](C)CC)C(=O)N[C@@H](CCC(=O)O)C(=O)NCC(=O)NCC(=O)N1CCC[C@H]1C(=O)N[C@@H](CO)C(=O)N[C@@H](CO)C(=O)NCC(=O)N[C@@H](C)C(=O)N1CCC[C@H]1C(=O)N1CCC[C@H]1C(=O)N1CCC[C@H]1C(=O)N[C@@H](CO)C(N)=O [Example 209] (H-Y[Aib]EGT[αMePhe(2-F)]TSDYSI[αMeL]LD[Dab]K([AEEA-AEEA-γGlu-C18 diacid])AQ[Aib]EFI[dE]YLIEGGPSSGAPPPS-NH2)	0.0664 nM	> 1060 nM	0.0308 nM	0.0374 nM	1.43 nM
